Results on seven compounds are retold here after article PMC6117091, “The C. difficile clnRAB operon initiates adaptations to the host environment in response to LL-37” (PLoS Pathogens, 2018).

For experiment [1], the system named is C. difficile 630Δerm. Briefly: Minimum inhibitory concentration (MIC). The following applies: Mueller-Hinton Broth, 24 h, 37°C, anaerobic, ~5 x 10^5 CFU/ml. Type of experiment: cell-based, Clostridioides difficile. How it is done: (§1) Minimum inhibitory concentrations (MIC) were determined as previously described. […] Briefly, overnight cultures of C. difficile strains were diluted 1:50 in Mueller-Hinton Broth (Difco) and grown to OD600 of 0.45 (~5 x 10^7 CFU/ml). Cultures were then diluted 1:10 in MHB and seeded at a further 1:10 dilution in a round-bottom 96-well plate prepared with serial dilutions of antimicrobials for a starting concentration of ~5 x 10^5 CFU/ml. Plates were incubated for 24 h at 37°C in the anaerobic chamber.

Experiment [2] has as its system C. difficile clnAB mutant (MC935). The experiment is described as follows: Minimum inhibitory concentration (MIC). It is filed as cell-based, Clostridioides difficile. The following applies: Mueller-Hinton Broth, 24 h, 37°C, anaerobic, ~5 x 10^5 CFU/ml. How it is done:
as §1

In experiment [3] the test system is C. difficile clnR mutant (MC885). Briefly: Minimum inhibitory concentration (MIC). It is filed as cell-based, Clostridioides difficile. The following applies: Mueller-Hinton Broth, 24 h, 37°C, anaerobic, ~5 x 10^5 CFU/ml. How it is done: as §1
Experiment [4] deals with clnR expression in C. difficile 630Δerm. Briefly: clnR expression by qRT-PCR after exposure to antimicrobials (induction specificity). The following applies: for Relative clnR expression: BHIS, mean of three replicates ± SEM; for Induction of clnR transcription (in words): concentrations of Table 1.
Experiment [5] deals with LL-37 (human cathelicidin) (human).
[6] abbreviates: Clostridioides difficile, read-out: MIC.

In brackets after ≈: the same amount, converted by molar mass. Read-outs that look alike come from different tables or passages of the source. Where a SMILES comes first, the peptide text is derived from it. Bridges are numbered along the chain shown (N, C = ends). Where no end group is shown, it is not given here. [ ]: non-standard residue; d: D form. The star is where a group is joined. X1 = CC[C@H](C)CCCCC(=O)*; Dab = NCC[C@H](N)C(=O)O

For the compound `CC[C@H](C)CCCCC(=O)N[C@@H](CCN)C(=O)N[C@H](C(=O)N[C@@H](CCN)C(=O)N[C@H]1CCNC(=O)[C@H]([C@@H](C)O)NC(=O)[C@H](CCN)NC(=O)[C@H](CCN)NC(=O)[C@H](CC(C)C)NC(=O)[C@@H](Cc2ccccc2)NC(=O)[C@H](CCN)NC1=O)[C@@H](C)O` [Polymyxin B, polymyxin B] (X1-[Dab]T[Dab][Dab][Dab][dF]L[Dab][Dab]T; lactam 4-C (inferred); N-terminus assumed), the MIC in experiment [1], in experiment [2] and in experiment [3] was 500 µg/mL (≈ 415 µM) in each case. The “Relative clnR expression” value in experiment [4] (200 μg/ml, normalized to 630Δerm without antimicrobials) came out at 1.2 ± 0.2. In addition, the “Induction of clnR transcription (in words)” value (shortened to “Induction”) in experiment [4] is reported as “none of the other cell-surface-active antimicrobials tested”.

As for “nisin (ITSISLCTPGCKTGALMGCNMKTATCHCSIHVSK; also: lantibiotic, modified residues and rings not given here; UniProt P13068 24-57, looked up)”, the MIC in experiment [1], in experiment [2] and in experiment [3] was 360 µg/mL in each case. Moreover, the “Relative clnR expression” value in experiment [4] (7.5 μg/ml, normalized to 630Δerm without antimicrobials) amounted to 1.1 ± 0.4. Moreover, in experiment [4], the “Induction” value is “none of the other cell-surface-active antimicrobials tested”.

Consider “Recombinant N-terminally His-tagged ClnR (natural protein)”, for which the dissociation constant (Kd) in experiment [5] was 83 nM.

For the compound `CN[C@H](CC(C)C)C(=O)N[C@H]1C(=O)N[C@@H](CC(N)=O)C(=O)N[C@H]2C(=O)N[C@H]3C(=O)N[C@H](C(=O)N[C@H](C(=O)O)c4cc(O)cc(O)c4-c4cc3ccc4O)[C@H](O)c3ccc(c(Cl)c3)Oc3cc2cc(c3O[C@@H]2O[C@H](CO)[C@@H](O)[C@H](O)[C@H]2O[C@H]2C[C@](C)(N)[C@H](O)[C@H](C)O2)Oc2ccc(cc2Cl)[C@H]1O` [Vancomycin, vancomycin], the MIC in experiment [1] (setting [6]), in experiment [2] (setting [6]) and in experiment [3] (setting [6]) was 1 µg/mL (≈ 0.69 µM) in each case. Besides, the “Induction” value in experiment [4] was “none of the other cell-surface-active antimicrobials tested”.

As for mCRAMP, the “Relative clnR expression” value in experiment [4] (2 μg/ml, normalized to 630Δerm in BHIS without antimicrobials) is on record as 111.4 ± 27.3. In experiment [4], the “Induction” value is “also induced”.

Turning to `CC1(C)S[C@@H]2[C@H](NC(=O)[C@H](N)c3ccccc3)C(=O)N2[C@H]1C(=O)O` [Ampicillin, ampicillin], the MIC in experiment [1] (setting [6]), in experiment [2] (setting [6]) and in experiment [3] (setting [6]) was 4 µg/mL (≈ 11.4 µM) each time. In addition, the “Induction” value in experiment [4] is recorded as “none of the other cell-surface-active antimicrobials tested”.

Take Lysozyme: the “Relative clnR expression” value in experiment [4] (1 mg/ml, normalized to 630Δerm without antimicrobials) is reported as 1.1 ± 0.3. In experiment [4], the “Induction” value is given as “none of the other cell-surface-active antimicrobials tested”.
